Tested on in the first test: not listed separately
The experiment in a line: biological activity of enantiomers (assay not specified). As to conditions: first eluting vs second eluting enantiomer.
On to `COc1cc(C)c2[nH]ccc2c1CN1CCN(CC(F)F)CC1c1ccc(C(=O)O)c(O)c1` (single isomer, unassigned) [Example 68, 4-(4-(2,2-difluoroethyl)-1-((5-methoxy-7-methyl-1H-indol-4-yl)methyl)piperazin-2-yl)-2-hydroxybenzoic acid], for which the “biological activity, comparison of enantiomers” value is listed as “more active enantiomer”.

A further test concerns complement activation.
Test: not given
As to conditions: fold activity relative to compstatin amidated at the C-terminus; based on published data and assays (WO2004/026328, WO2007044668, Mallik 2005; Katragadda 2006); cited from earlier work.
Take “Ac-ICV(1-Nal)QDWGAHRCT-COOH [Ac V4(1-Nal)/H9A —OH]”: the Activity over compstatin was 30 × more.
“Ac-ICV(2-IgI)QDWGAHRCT-CONH2 [Ac-V42IgI/H9A]”: the Activity over compstatin is reported as 39 × more.
With “Ac-ICV(2-IgI)QDWGAHRCT-COOH [Ac-V42IgI/H9A —OH]”, the Activity over compstatin was 37 × more.
In the case of “Ac-ICV(2-Nal)QDWGAHRCT-CONH2 [Ac-V4(2-Nal)/H9A]”, the Activity over compstatin is 99 × more.
In the case of “Ac-ICV(2-Nal)QDWGAHRCT-COOH [Ac V4(2-Nal)/H9A —OH]”, the Activity over compstatin is reported as 38 × more.
Take “Ac-ICV(Bpa)QDWGAHRCT-CONH2 [Ac-V4(Bpa)/H9A]”: the Activity over compstatin was 86 × more.
For “Ac-ICV(Bpa)QDWGAHRCT-COOH [Ac-V4(Bpa)/H9A —OH]”, the Activity over compstatin is given as 49 × more.
Take “Ac-ICVDhtQDWGAHRCT-COOH [Ac-V4Dht/H9A —OH]”: the Activity over compstatin is given as 5 × more.
With Ac-ICVVQDWGHHRCT-CONH2 [Ac-compstatin], the Activity over compstatin is 3 × more.
“Ac-ICVWQD(5fW)GAHRCT-CONH2 [Ac-V4W/W7(5fW)/H9A]”: the Activity over compstatin is 121 × more.
In the case of “Ac-ICVWQDWGAHRCT-CONH2 (Ac-ICVWQDWGAHRCT-NH2; cysteine pairing not given here) [Ac-V4W/H9A, compstatin analog]”, the Activity over compstatin is listed as 45 × more.
With “Ac-ICVWQDWGAHRCdT-COOH [Ac-V4W/H9A/T13dT —OH]”, the Activity over compstatin is recorded as 55 × more.
Ac-ICVYQDWGAHRCT-CONH2 [Ac-V4Y/H9A]: the Activity over compstatin is recorded as 14 × more.
Regarding “H-GICV(6fW)QD(6fW)GAHRCTN-COOH [+G/V4(6fW)/W7(6fW)H9A + N—OH]”, the Activity over compstatin was 126 × more.

Values taken from patent US20260216175A1, “COMPLEMENT INHIBITION” (Apellis Pharmaceuticals, Inc., priority 2023, published 2026).
